Patent US9623031B2, “Compositions, methods and kits for treating cancer” (priority 2011, dated 2017)
“Also recorded” adds a separate entry of the source.

Tests used:
Survivin = Survivin expression in human AML sample (RT-PCR); type: cell-based; details: 6 h
Method: Survivin expression in the human AML sample post Δ^12-PGJ3 treatments was examined. Total RNA was isolated from AML cells with indicated treatments (for 6 h) using Trizol (Invitrogen) cDNA was generated using Superscript II (Invitrogen) and cDNA were quantified by RT-PCR using SYBR green PCR master mix and primers that amplify a 76 nt PCR product. A Taqman probe for GAPDH (Applied biosystems) was used.

[1] = test system: normal HSCs (MSCV-GFP^+HSC); assay: Effect on normal HSCs (MSCV-GFP+ HSC) treated ex vivo
[2] = test system: FV-LSCs transplanted into BALB/c-Stk^−/− mice
Method: Transplant of FV-LSCs into BALB/c-Stk^−/− mice: FV-LSCs were generated as described above. 2.5×10^5 FV-LSCs were transplanted into BALB/c-Stk^−/− mice by retro-orbital injection. Six weeks after transplant the mice were treated with CyPGs or vehicle control as indicated in the text.
Treatment of Mice with PGs: Mice with FV-induced erythroleukemia or MIGR-BCR-ABL induced CML were treated on the indicated days with CyPGs. Mice were treated with a daily intraperitoneal injection of Δ^12-PGJ3 (0.01-0.1 mg/kg), 15d-PGJ2 (0.1 mg/kg), or 9,10-dihydro-15d-PGJ2 (0.1 mg/kg) for 7 days. All three compounds were formulated with hydroxypropyl-β-cyclodextrin (30% w/v; Sigma; vehicle control).
Stk^−/− mice are resistant to Friend virus infection so the leukemia developed by the transplanted mice is result of the transplanted LSCs and not FV infection. […] LSCs sorted from the spleens of FV-infected mice were transplanted into Stk^−/− mice (on a Balb/c background). After 6 weeks such mice were treated daily for 1 week with vehicle (hydroxypropyl-β-cyclodextrin), 15d-PGJ2 (0.05 mg/kg), or 9,10-dihydro-15d-PGJ2 (0.05 mg/kg) by intraperitoneal injection. The mice were sacrificed 51 days post LSC transplantation for analysis. An analysis of spleens of mice comparing splenomegaly in vehicle, 15d-PGJ2, or 9,10-dihydro-15d-PGJ2 treated transplanted mice was performed. Spleen weight compared to control (untransplanted mice) after treatment and WBC counts in the peripheral blood of the mice after treatment were examined, and a flow cytometric analysis of the spleen of untransplanted and LSC transplanted mice after treatment was performed. All data were mean±s.e.m. *p<0.05 compared to control or 9,10-dihydro-15d-PGJ2 treated groups. N=5 per group.

[3] = test system: imatinib-resistant BCR-ABL(GFP)+ cells; assay: Imatinib-resistant BCR-ABL(GFP)+ LSCs treated ex vivo; type: cell-based, mouse; details: splenocytes after imatinib i.p. 1 wk and 1 week washout; 25 nM, 24 h
Method: FIG. 8 is a graph showing that imatinib-resistant BCR-ABL(GFP)+ cells are targeted by Δ^12-PGJ3. […] The mice were followed for the development of leukemia. Mice that developed leukemia were euthanized and spleens were used as the source of LSCs.
GFP+ LSCs were analyzed by flow cytometry.

NF-κB = NF-κB activation in sorted BCR-ABL+ LSCs (EMSA, Western blot); type: cell-based, mouse; details: 25 nM, 0-6 h
Method: The effect of Δ^12-PGJ3 on NF-κB and PPAPγ was examined. RAW264.7 macrophages were pretreated with DMSO, Δ^12-PGJ3 at 0.25, or 1.0 μM and subsequently stimulated with 100 ng/mL E. coli LPS for 4 h. The nuclear extracts were prepared and the binding of NΦκB to a ^32P-labeled consensus double stranded oligonucleotide probe was examined using gel shift analysis. NS=non-specific band. Lanes 1-5 represent untreated, LPS alone, DMSO+LPS, Δ^12-PGJ3 (0.25 μM)+LPS, and Δ^12-PGJ3 (1 μM)+LPS, respectively. BCR-ABL LSCs were sorted from spleens, plated, and treated with PBS, 25 nM Δ^12-PGJ3, or 9,10-dihydro 15d-PGJ2 for 0, 2 or 6 h. The cells were harvested and nuclear extracts were prepared using standard techniques. Ten μg of nuclear protein was used from each sample for the gel-shift reaction. As a positive control for NF-κB, nuclear extract from LPS-treated murine (RAW264.7) macrophages was used. Anti-p50 Ab was used with this positive control for a supershift, and excess ‘cold’ probe was used with the positive control as a ‘cold competitor’. A Western blot analysis was performed of the above-mentioned nuclear extracts from BCR-ABL LSCs treated with PBS, Δ^12-PGJ3 or 9,10-dihydro-15d-PGJ2 for various time periods (0-6 h) probed with anti-p65 and anti-β-actin antibodies. […]

residual BCR-ABL LSCs = assay: Secondary transplants from treated BCR-ABL mice (residual LSCs); type: in vivo, mouse
Method: Secondary transplants to test for residual LSCs after treatment with Δ^12-PGJ3: For the CML model, B6.SJLPtprca Pep3b/BoyJ (CD45.1^+) mice were treated with 5-FU and bone marrow cells enriched in cycling HSCs were isolated followed by infection with MIGR-BCR-ABL virus or control MSCV-GFP virus as described above. The cells were transplanted into C57BL/6 (CD45.2) recipient mice as mentioned earlier. The mice were treated with Δ^12-PGJ3 or vehicle control as indicated. Two weeks after treatment, spleen cells were isolated and transplanted into irradiated secondary C57BL/6 (CD45.2) recipients as described above. Two weeks after secondary transplant, mice were analyzed for WBC counts, splenomegaly and the presence of GFP^+ or CD45.1 donor cells in the bone marrow and spleen by flow cytometry. Secondary transplants were also done with FV infected mice treated with Δ^12-PGJ3 or vehicle control. BALB/c mice were infected with Friend virus as described above. The mice were treated with Δ^12-PGJ3 or vehicle control as indicated. Two weeks after treatment, spleen cells isolated from FV-infected mice and transplanted into BALB/c-Stk^−/− recipient mice (1×10^5 cells per mouse). Five weeks post transplant, the mice with secondary transplants were tested for WBC counts, splenomegaly and for the presence of M34^+Kit^+Sca1^+FV-LSCs by flow cytometry.

[4] = test system: MSCV-GFP^+ HSC transplanted mice (steady state hematopoiesis); assay: Control mice transplanted with MSCV-GFP+ HSCs, treated; details: mouse, in vivo
Method: Induction of CML using MIGR-BCR-ABL retrovirus: MIGR-BCR-ABL and control MSCV-GFP retroviruses were obtained. […] C57BL/6 mice were treated with 5-fluorouracil (5-FU; 150 mg/Kg, Sigma, St. Louis, Mo.) to enrich for cycling HSCs. On day four after treatment bone marrow cells were harvested and infected with MIGR-BCR-ABL or MSCV-GFP control virus overnight in IMDM media containing 5% FCS and supplemented with 2.5 ng/ml IL-3 and 15 ng/ml SCF (R&D Systems Minneapolis, Minn.). 0.5×10^6 transduced cells were transplanted by retro-orbital injection into C57BL/6 recipient mice that were preconditioned with 950 Rads of irradiation. In order to increase the number of CML and control mice, 17 days after transplant GFP^+ spleen cells were isolated by FACS and 1×10^5 GFP^+ cells were transplanted into irradiated (950 Rads) secondary C57BL/6 recipients. Two weeks after transplant, mice were treated as indicated with CyPGs and vehicle control. For ex-vivo experiments, Kit^+Sca1^+Lin^−GFP^+ cells were isolated from the bone marrow or spleen of transplanted mice by FACS. The sorted cells were cultured in Methocult media M3334 (Stem Cell Technologies Vancouver BC) M3334 supplemented with Shh, SCF, and BMP4 and treated with the indicated CyPGs and vehicle controls for indicated time periods. […] The hematopoietic colonies (colony forming cells in culture, CFC) were scored. […]

[5] = test system: blast crisis CML cells from a patient (#011711); assay: Blast crisis CML patient cells: cytospin and annexin V apoptosis; type: cell-based, human
Method: An experiment involving a cytospin of Blast crisis CML (011711) and Geimsa stain was performed. Blast crisis CML were cultured in IMDM with BIT, LDL, L-Glu and treated with PBS or 100 nM Δ^12-PGJ3 for 12 hrs. Cells were collected and slides were done by Cytospin. Cytospin slides were stained with Wright Geimsa stain and pictures (100×) were recorded on a Material microscope.
In this experiment, 110,000/well primary AML cells were cultured in above specified media for 6 and 12 hrs. Cells were collected and washed once with ice cold PBS. The cells were resuspended in 200 ul 1× Apoptosis buffer with annexin-V PE to all tubes. The cells were washed in PBS and resuspended in 600 ul PBS and transfer into flow tubes and analyzed for apoptosis (Annexin V+ cells) on FC-500. […] In this experiment, 110,000/well AML cells were cultured in earlier mentioned media for 6 and 12 hrs. Cells were collected and washed once in PBS and resuspended in 200 ul PBS and blocked with FC receptor antibody 10 mins RT. The following antibodies were added: CD38, CD123, CD34, CD117 (BD bioscience) for 1 hr on ice. Cells were washed in PBS once and resuspended in 200 ul of apoptotic buffer, and annexin V was added and incubated for 15 mins. Apoptotic cells (Annexin V+ cells) were counted by flow cytometry. […] Apoptotic cells (Annexin V+ cells) were counted by flow cytometry.

## CC/C=C\C[C@H](O)C/C=C1/C(=O)C=C[C@@H]1C/C=C\CCCC(=O)O [Δ^12-PGJ3, Δ^12-prostaglandin J3]
Survivin
  survivin expression: decreases the expression of survivin
[1]; Kit+Sca1+Lin−GFP+ cells from MSCV-control mice, ex vivo 36 h
  effect on normal HSCs: no adverse effects on HSCs or downstream progenitors; also recorded: did not affect the normal HSCs
[1]; antagonists/inhibitor 10 nM, Δ^12-PGJ3 25 nM, 36 h
  viability of MSCV-HSC control cells: not affected
[2]; 0.025 mg/kg and 0.05 mg/kg, 1 week
  leukocyte counts: concomitant decrease in leukocyte counts
[2]; FV-induced leukemia, FIG. 3C
  hematocrit, WBC counts and reticulocyte counts: significantly decreased
[2]; flow cytometry after 1 week i.p. treatment
  LSCs (M34+Sca1+Kit+) in the spleen: complete ablation
[2]; mouse, in vivo
  hematological parameters (complete blood counts) versus untransplanted control mice: does not adversely affect hematological parameters
  pChk2 levels in total spleen extracts: increase in the levels of pChk2
[2]; Δ^12-PGJ3 0.025 and 0.05 mg/kg, comparators 0.05 mg/kg, i.p. 1 week
  splenomegaly: significantly decreased splenomegaly
[3]
  targeting of imatinib-resistant GFP+ LSCs: can even target LSCs that are resistant to imatinib treatment
NF-κB
  NF-κB activation, EMSA and Western blot of nuclear extracts: lack of activation of NF-κB
Residual BCR-ABL LSCs; donor cells from treated mice
  Kit+Sca1+GFP+ LSCs in spleen of secondary recipients: lacked Kit^+Sca1^+GFP^+ cells
Residual BCR-ABL LSCs; donor spleen cells from treated mice, two weeks after secondary transplant
  splenomegaly and WBC counts in secondary recipients: failed to develop splenomegaly or high WBC counts
[4]
  WBC counts, other hematological parameters, survival: had no effect on WBC counts or other hematological parameters or survival
[5]; 100 nM, 12 hrs
  cell death, cytospin with Wright Geimsa stain: death of blast-crisis CML cells
[5]; 6 and 12 hrs
  apoptosis (Annexin V+ cells): induces apoptosis in BC-CML primary patient cells
